Source: patent EP1769804B1, “hPTH(1-34) for use in preventing or reducing the incidence or severity of vertebral and / or non vertebral fracture in a male human” (priority 1998, dated 2012)
Marks after values point to notes of the source that are not given here.

Tests used:
Ovariectomized Primates [1] = experiment: Biomechanical measures of cortical bone of the humerus midshaft; type: in vivo, Macaca fascicularis; settings: for Fy / S (stiffness) / t (average cortical thickness): humerus midshaft, mean ± SEM
Source text: (§1) Biomechanical tests were done on lumbar vertebrae L-3 to L-4, the femur neck, humerus midshaft, and on a cortical bone specimen machined from the femur diaphysis (measures defined in Table 2). Conventional static and dynamic histomorphometry were done (measures described in Table 6) on the humerus midshaft, lumbar vertebra L-2, femoral neck, femur midshaft, the radius midshaft and distal radius. Initial statistical analyses compared all groups to vehicle-treated ovariectomized controls. The data is suitable for additional exploratory analyses to examine dose dependency, effects of withdrawal, interactions between outcomes, and changes in time by methods known to those of skill in the art. All assays were conducted and determined by methods known in the art.

[2] = cynomolgus monkey, in vivo
Method: Serum and urinary samples were taken 24 hours after vehicle or rhPTH(1-34) injection at 3-month intervals. A sparse sampling design of 5 monkeys in each rhPTH(1-34)-treated group was used for pharmacokinetics, with sampling (spanning 0 to 240 minutes each time) at baseline, 7, 11, and 17 months.

[3] = tested on: L-5 vertebra from cynomolgus monkeys; experiment: QCT and 3D finite element modeling of L-5 vertebra; type: in vivo; settings: for low BMD, percentage of L5 vertebral volume: 0-300 mg/cc; for low BMD, percentage of L5 vertebral volume / medium BMD, percentage of L5 vertebral volume / high BMD, percentage of L5 vertebral volume / cortical BMD, percentage of L5 vertebral volume: mean±SEM; for medium BMD, percentage of L5 vertebral volume: 300-700 mg/cc; for high BMD, percentage of L5 vertebral volume: 700-1000 mg/cc; for cortical BMD, percentage of L5 vertebral volume: >1000 mg/cc; for vertebral effective strain: finite element model, distributed load of 100 N
Method: These studies determined 3D finite element modeling data on vertebra from monkeys of the study dosed with PTH for 18 months. Excised L-5 vertebra in 50% ethanol/saline from the ovariectomized (n=7) and PTH (n=7) groups were serially scanned in 500 µm steps by quantitative computed tomography (QCT, Norland, Ft. Atkinson, WI), using 70x70 µm pixels. Each of the 500 µm cross-sections was analyzed for volumetric bone mineral density (BMD, mg/cc), bone mineral content (BMC, mg), cross-sectional area (X-Area), cancellous bone volume (BV/TV), trabecular thickness (Tb.Th), and connectivity (node density, strut analysis). Pixels in each serial scan were averaged to create 490x490x500 µm voxels. The serial scans were then stacked and a triangular surface mesh generated for each bone using the "marching cubes" algorithm (see e.g. Lorensen and Cline 1987 "Marching cubes, a high resolution 3D surface construction algorithm." Computer Graphics 21, 163-169). A smoothed version of each surface mesh was then used to generate a tetrahedral mesh for 3D finite-element modeling.
Young's modulus for each tetrahedral element was derived from the original voxel densities and material properties from a beam of cortical bone milled from the femoral diaphysis of the monkeys. Each tetrahedral mesh was rotated so that the bottom surface of each vertebra was aligned with a plane. Linear elastic stress analysis was then performed for each L-5 model in which a distributed load of 100 N was applied to the top surface of the centrum, perpendicular to the bottom plane while the bottom surface was fixed in the direction of loading. The resulting axial strain contours were evaluated, as were the BMD distributions, and compared between PTH and ovariectomized. At this resolution, the density of each voxel is dependent on the extent to which each voxel is filled with bone as opposed to soft tissue.

Ovariectomized Primates [4] = experiment: Biomechanical material properties of beam specimens from femur diaphysis; type: in vivo, Macaca fascicularis; settings: for E (Young's modulus) / u (toughness) / εa / σa: femur diaphysis beam, mean ± SEM
Source text: as §1

post-menopausal women = experiment: Clinical trial: number and severity of vertebral fractures (spine x-ray); type: in vivo, Humans
[5] = tested on: ovariectomized cynomolgus primates; experiment: Iliac biopsy histomorphometry (cancellous bone); type: in vivo, Macaca fascicularis
Source text: All animals were euthanized after 18 months.

[6] = compared to ovariectomized controls
[7] = PTH1-W: withdrawal after 1 µg/kg for 12 months
[8] = PTH5-W: withdrawal after 5 µg/kg for 12 months
[9] = PTH-W, after withdrawal of PTH for 6 months
[10] = PTH for 18 months compared to ovariectomized
[11] = 20 µg/day PTH compared to placebo
[12] = 40 µg/day PTH compared to placebo
[13] = all PTH treated patients compared with placebo

teriparatide [rhPTH(1-34)]
measures in the cortical diaphysis of the humerus midshaft (Ovariectomized Primates [1]; [6]): did not alter | Fy (Ovariectomized Primates [1]; [7]): 689 ± 23 N | S (stiffness) (Ovariectomized Primates [1]; [7]): 573 ± 20 N/mm | t (average cortical thickness) (Ovariectomized Primates [1]; [7]): 1.66 ± 0.04 mm | Fy (Ovariectomized Primates [1]; PTH1: 1 µg/kg for 18 months): 654 ± 23 N | S (stiffness) (Ovariectomized Primates [1]; PTH1: 1 µg/kg for 18 months): 544 ± 23 N/mm | t (average cortical thickness) (Ovariectomized Primates [1]; PTH1: 1 µg/kg for 18 months): 1.68 ± 0.03 mm | Fy (Ovariectomized Primates [1]; [8]): 707 ± 24 N | S (stiffness) (Ovariectomized Primates [1]; [8]): 573 ± 24 N/mm | t (average cortical thickness) (Ovariectomized Primates [1]; [8]): 1.72 ± 0.05 mm | Fy (Ovariectomized Primates [1]; PTH5: 5 µg/kg for 18 months): 680 ± 15^a N | S (stiffness) (Ovariectomized Primates [1]; PTH5: 5 µg/kg for 18 months): 548 ± 18 N/mm | t (average cortical thickness) (Ovariectomized Primates [1]; PTH5: 5 µg/kg for 18 months): 1.80 ± 0.04^a mm | pharmacokinetic measures [2]: did not change with time | low BMD, percentage of L5 vertebral volume ([3]; PTH for 18 months): 17.7±1.6 % | low BMD, percentage of L5 vertebral volume [3, 9]: 22.4±1.3 % | medium BMD, percentage of L5 vertebral volume ([3]; PTH for 18 months): 58.9±1.9 % | medium BMD, percentage of L5 vertebral volume [3, 9]: 49.7±1.2% | high BMD, percentage of L5 vertebral volume ([3]; PTH for 18 months): 22.8±2.7% | high BMD, percentage of L5 vertebral volume [3, 9]: 27.0±1.6 % | cortical BMD, percentage of L5 vertebral volume ([3]; PTH for 18 months): 0.6±0.3% | cortical BMD, percentage of L5 vertebral volume [3, 9]: 0.8±0.2% | BMC at the midlevel of the L5 vertebra ([3]; PTH for 18 months): 47.4 ± 1.5 mg | greater Tb.N, centrum [3, 10]: 37% | greater node density (node/tissue volume) [3, 10]: 140% | greater node-to-node struts [3, 10]: 286% | increase in BMC, middle 500 µm slice of L-5 [3, 10]: 27% | increase in BMD, middle 500 µm slice of L-5 [3, 10]: 21% | increase in BV/TV, centrum [3, 10]: 73% | increase in Tb.Th, centrum [3, 10]: 30% | reduction of average mechanical strain in the vertebra ([3]; PTH treatment, vs OVX): 36% | BMC at the midlevel of the L5 vertebra [3, 9]: 44.2 ± 1.2 mg | average mechanical strain in the vertebra below OVX ([3]; after withdrawal of PTH): 23% | vertebral effective strain ([3]; PTH for 18 months): 447±36 ustrain | vertebral effective strain [3, 9]: 539±34 ustrain | material properties of beam specimens machined from the femoral diaphysis (Ovariectomized Primates [4]; [6]): did not alter | E (Young's modulus) (Ovariectomized Primates [4]; [7]): 16.6 ± 0.6 Gpa | u (toughness) (Ovariectomized Primates [4]; [7]): 5.3 ± 0.4 mJ/m^3 | εa (Ovariectomized Primates [4]; [7]): 0.034 ± 0.002 | σa (Ovariectomized Primates [4]; [7]): 214 ± 6 Mpa | E (Young's modulus) (Ovariectomized Primates [4]; PTH1: 1 µg/kg for 18 months): 17.1 ± 0.4 Gpa | u (toughness) (Ovariectomized Primates [4]; PTH1: 1 µg/kg for 18 months): 6.1 ± 0.4 mJ/m^3 | εa (Ovariectomized Primates [4]; PTH1: 1 µg/kg for 18 months): 0.036 ± 0.002 | σa (Ovariectomized Primates [4]; PTH1: 1 µg/kg for 18 months): 222 ± 4 Mpa | E (Young's modulus) (Ovariectomized Primates [4]; [8]): 15.3 ± 0.6^a Gpa | u (toughness) (Ovariectomized Primates [4]; [8]): 6.1 ± 0.4 mJ/m^3 | εa (Ovariectomized Primates [4]; [8]): 0.038 ± 0.002 | σa (Ovariectomized Primates [4]; [8]): 208 ± 6 Mpa | E (Young's modulus) (Ovariectomized Primates [4]; PTH5: 5 µg/kg for 18 months): 15.4 ± 0.6^a Gpa | u (toughness) (Ovariectomized Primates [4]; PTH5: 5 µg/kg for 18 months): 5.4 ± 0.4 mJ/m^3 | εa (Ovariectomized Primates [4]; PTH5: 5 µg/kg for 18 months): 0.034 ± 0.002 | σa (Ovariectomized Primates [4]; PTH5: 5 µg/kg for 18 months): 206 ± 6 Mpa | Number of patients with 2 or more new vertebral fractures (post-menopausal women; 20 µg/day PTH (n=444)): 5 | Number of patients with new moderate to severe fractures (post-menopausal women; 20 µg/day PTH (n=444)): 4 | Number of patients with new vertebral fractures (post-menopausal women; 20 µg/day PTH (n=444)): 22 | percentage of patients with 2 or more new vertebral fractures (post-menopausal women; 20 µg/day PTH (n=444)): (1.1%) | percentage of patients with new moderate to severe fractures (post-menopausal women; 20 µg/day PTH (n=444)): (0.9%) | percentage of patients with new vertebral fractures (post-menopausal women; 20 µg/day PTH (n=444)): (5.0%) | reduction in number of patients with moderate to severe vertebral fractures (post-menopausal women; [11]): 90% | reduction in number of patients with multiple vertebral fractures (post-menopausal women; [11]): 77% | reduction in number of patients with vertebral fractures (post-menopausal women; [11]): 65% | Number of patients with 2 or more new vertebral fractures (post-menopausal women; 40 µg/day PTH (n=434)): 3 | Number of patients with new moderate to severe fractures (post-menopausal women; 40 µg/day PTH (n=434)): 9 | Number of patients with new vertebral fractures (post-menopausal women; 40 µg/day PTH (n=434)): 19 | percentage of patients with 2 or more new vertebral fractures (post-menopausal women; 40 µg/day PTH (n=434)): (0.7%) | percentage of patients with new moderate to severe fractures (post-menopausal women; 40 µg/day PTH (n=434)): (2.1%) | percentage of patients with new vertebral fractures (post-menopausal women; 40 µg/day PTH (n=434)): (4.4%) | reduction in number of patients with moderate to severe vertebral fractures (post-menopausal women; [12]): 78% | reduction in number of patients with multiple vertebral fractures (post-menopausal women; [12]): 86% | reduction in number of patients with vertebral fractures (post-menopausal women; [12]): 69% | reduction in number of patients with moderate to severe vertebral fractures (post-menopausal women; [13]): 84% | reduction in number of patients with multiple vertebral fractures (post-menopausal women; [13]): 81% | reduction in number of patients with vertebral fractures (post-menopausal women; [13]): 67% | reduction in the number of patients with moderate or severe fractures (post-menopausal women; summary): 78% | reduction of the number of patients with prior vertebral fractures who suffered new vertebral fractures (post-menopausal women; summary): more than 66% | reduction of the number of patients with prior vertebral fractures who suffered new, multiple vertebral fractures (post-menopausal women; summary): more than 78% | mineralization, activation frequency, or remodeling periods ([5]; iliac biopsy): did not affect | cancellous bone area ([5]; iliac biopsy at 15 months, compared to ovariectomized): increased cancellous bone area
